From US12263171B2, “7-, 8-, and 10-substituted amino triazolo quinazoline derivatives as adenosine receptor antagonists, pharmaceutical compositions and their use” (Merck Sharp & Dohme LLC, priority 2018, dated 2025)

Columns and labels:
[1] = biological target: human A2b adenosine receptor (Homo sapiens (Human), UniProt P29275); assay: A2B antagonism in cAMP cell-based assay (LANCE cAMP, HEK293 cells, 600 nM adenosine); settings: for IC50: values marked *: cAMP cell-based assay
Method: Measurement of A2A and A2B Antagonism in cAMP Cell-Based Assay
All subsequent liquid additions were performed using a multichannel pipettor. […] After this time 5 μL of either 300 nM or 600 nM adenosine (Sigma Cat. No. A9251) for A2A and A2B respectively was added and incubated for 30 minutes at 37° C. and 5% CO2 in a humidified environment. At this time detection mix was prepared by combining the LANCE Eu-W8044 labeled streptavidin and. Biotin-cAMP in detection buffer according to the manufacturers protocol. […] Curve fitting of the percent effect data versus the log of compound concentration used a 4-parameter concentration response curve fitting algorithm to calculate IC50 values.

[2] = biological target: human A2a adenosine receptor (Homo sapiens (Human), UniProt P29274); assay: A2a receptor affinity radioligand binding assay ([3H] SCH58261, membranes from HEK293 or CHO cells); settings: unstarred values: radioligand binding
Method in brief: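 Displacement of tritiated SCH58261 (working dilution 4 nM) from recombinant human A2a receptor membranes (HEK293 or CHO), 60 min at room temperature in Tris pH 7.4/MgCl2 buffer after 15–30 min compound preincubation. Scintillation counting after filtration; normalized percent effect fitted 4-parameter logistic for IC50.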

Chain of human A2b adenosine receptor (P29275 whole entry): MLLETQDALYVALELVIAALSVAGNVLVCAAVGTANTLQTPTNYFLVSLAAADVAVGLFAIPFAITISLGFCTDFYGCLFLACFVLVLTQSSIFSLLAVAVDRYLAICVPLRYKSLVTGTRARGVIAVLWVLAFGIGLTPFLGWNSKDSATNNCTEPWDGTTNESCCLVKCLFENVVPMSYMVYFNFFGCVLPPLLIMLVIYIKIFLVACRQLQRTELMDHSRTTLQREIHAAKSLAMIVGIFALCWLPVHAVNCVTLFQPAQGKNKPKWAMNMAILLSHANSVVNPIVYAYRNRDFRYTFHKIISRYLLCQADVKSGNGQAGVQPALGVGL
Chain of human A2a adenosine receptor (P29274 whole entry): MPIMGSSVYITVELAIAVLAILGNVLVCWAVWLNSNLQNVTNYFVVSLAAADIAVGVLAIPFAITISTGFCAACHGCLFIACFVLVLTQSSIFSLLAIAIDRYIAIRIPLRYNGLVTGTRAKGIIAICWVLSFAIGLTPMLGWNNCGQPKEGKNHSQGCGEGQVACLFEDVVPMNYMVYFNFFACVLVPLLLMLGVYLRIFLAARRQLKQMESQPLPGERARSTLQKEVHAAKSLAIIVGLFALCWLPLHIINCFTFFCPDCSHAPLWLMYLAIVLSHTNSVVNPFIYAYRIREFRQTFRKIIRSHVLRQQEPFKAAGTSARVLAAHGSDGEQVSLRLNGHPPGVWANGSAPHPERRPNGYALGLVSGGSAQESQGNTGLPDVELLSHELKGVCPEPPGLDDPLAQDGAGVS

SMILES | IC50 [1] | IC50 [2] | *A2B cAMP % inh. @ 10000 nM ([1]; @ 10000 nM, marked *) | *A2B cAMP ^ % @ 10000 nM ([1]; @ 10000 nM, marked *, printed with ^ and without inh.)
COc1cccc2c1nc(N)n1nc([C@@H]3CCCN(c4cnn([C@H]5CC[C@H](O)C5)c4)C3)nc21 [Example 29, (1S,3S)-3-(4-((R)-3-(5-amino-7-methoxy-[1,2,4]triazolo[1,5-c]quinazolin-2-yl)piperidin-1-yl)-1H-pyrazol-1-yl)cyclopentan-1-ol] | 24.7 nM | 1.3 nM |  | 
COc1ccc(F)c2c1nc(N)n1nc([C@@H]3CC[C@H](C)N(c4cnn(CC(C)(C)O)c4)C3)nc21 [Example 224, 1-(4-((2S,5R)-5-(5-amino-10-fluoro-7-methoxy-[1,2,4]triazolo[1,5-c]quinazolin-2-yl)-2-methylpiperidin-1-yl)-1H-pyrazol-1-yl)-2-methylpropan-2-ol] | 9.6 nM | 0.3 nM |  | 
COc1cccc2c1nc(N)n1nc([C@@H]3CCCN(c4cncn4C)C3)nc21 [Example 86, (R)-7-methoxy-2-(1-(1-methyl-1H-imidazol-5-yl)piperidin-3-yl)-[1,2,4]triazolo[1,5-c]quinazolin-5-amine] | 146 nM | 2.1 nM |  | 
COc1cccc2c1nc(N)n1nc([C@@H]3CCCN(c4cnn(C(C)C)c4)C3)nc21 [Example 5, (R)-2-(1-(1-isopropyl-1H-pyrazol-4-yl)piperidin-3-yl)-7-methoxy-[1,2,4]triazolo[1,5-c]quinazolin-5-amine] | 39.5 nM | 2.4 nM |  | 
COc1cccc2c1nc(N)n1nc([C@@H]3CCCN(c4ncn(C)n4)C3)nc21 [Example 83, (R)-7-methoxy-2-(1-(1-methyl-1H-1,2,4-triazol-3-yl)piperidin-3-yl)-[1,2,4]triazolo[1,5-c]quinazolin-5-amine] | 78.3 nM | 0.8 nM |  | 
COc1cccc2c1nc(N)n1nc([C@@H]3CCCN(c4cnn(CC(C)(C)N)c4)C3)nc21 [Example 120, (R)-2-(1-(1-(2-amino-2-methylpropyl)-1H-pyrazol-4-yl)piperidin-3-yl)-7-methoxy-[1,2,4]triazolo[1,5-c]quinazolin-5-amine] | 321 nM | 3.1 nM |  | 
CCC(O)(CC)Cn1cc(N2CCC[C@@H](c3nc4c5cccc(OC)c5nc(N)n4n3)C2)cn1 [Example 40] | 19.7 nM | 3.1 nM |  | 
COc1ccc2c(c1)nc(N)n1nc([C@@H]3CC[C@H](C)N(c4cn(CC(C)(C)O)nc4C)C3)nc21 [Example 213, 1-(4-((2S,5R)-5-(5-amino-8-methoxy-[1,2,4]triazolo[1,5-c]quinazolin-2-yl)-2-methylpiperidin-1-yl)-3-methyl-1H-pyrazol-1-yl)-2-methylpropan-2-ol] | 27.6 nM | 0.4 nM |  | 
COc1cccc2c1nc(N)n1nc([C@@H]3CCCN(c4cnn(C)c4C(F)(F)F)C3)nc21 [Example 2, (R)-7-methoxy-2-(1-(1-methyl-5-(trifluoromethyl)-1H-pyrazol-4-yl)piperidin-3-yl)-[1,2,4]triazolo[1,5-c]quinazolin-5-amine] | 763 nM | 1 nM |  | 
COc1cccc2c1nc(N)n1nc([C@@H]3CCCN(c4cnn([C@@H]5CCC[C@H](O)[C@@]5(C)O)c4)C3)nc21 [Example 27, (1S,2S,6R)-6-(4-((R)-3-(5-amino-7-methoxy-[1,2,4]triazolo[1,5-c]quinazolin-2-yl)piperidin-1-yl)-1H-pyrazol-1-yl)-1-methylcyclohexane-1,2-diol] | 40.3 nM | 2 nM |  | 
COc1cccc2c1nc(N)n1nc([C@@H]3CCCN(c4cnn5c(C)cccc45)C3)nc21 [Example 19, (R)-7-methoxy-2-(1-(7-methylpyrazolo[1,5-a]pyridin-3-yl)piperidin-3-yl)-[1,2,4]triazolo[1,5-c]quinazolin-5-amine] | 70.9 nM | 1.3 nM |  | 
COc1cccc2c1nc(N)n1nc([C@@H]3CCCN(c4nccc(C(F)(F)F)n4)C3)nc21 [Example 111, (R)-7-methoxy-2-(1-(4-(trifluoromethyl)pyrimidin-2-yl)piperidin-3-yl)-[1,2,4]triazolo[1,5-c]quinazolin-5-amine] |  | 16.4 nM | 10% inh. @ 10000 nM* | 
COc1cccc2c1nc(N)n1nc([C@@H]3CCCN(c4cnn(C5COC5)c4)C3)nc21 [Example 39, (R)-7-methoxy-2-(1-(1-(oxetan-3-yl)-1H-pyrazol-4-yl)piperidin-3-yl)-[1,2,4]triazolo[1,5-c]quinazolin-5-amine] | 29.4 nM | 2.5 nM |  | 
COc1cccc2c1nc(N)n1nc([C@@H]3CCN(c4cnn(CC(F)(F)F)c4)C3)nc21 [Example 164, (R)-7-methoxy-2-(1-(1-(2,2,2-trifluoroethyl)-1H-pyrazol-4-yl)pyrrolidin-3-yl)-[1,2,4]triazolo[1,5-c]quinazolin-5-amine] | 29.5 nM | 8.9 nM |  | 
COc1cccc2c1nc(N)n1nc([C@@H]3CCCN(c4ccc(=O)n(C5CC5)c4)C3)nc21 [Example 95, (R)-5-(3-(5-amino-7-methoxy-[1,2,4]triazolo[1,5-c]quinazolin-2-yl)piperidin-1-yl)-1-cyclopropylpyridin-2(1H)-one] | 59.1 nM | 2.3 nM |  | 
COc1cccc2c1nc(N)n1nc([C@@H]3CCCN(c4cnn5c4CCC5)C3)nc21 [Example 13, (R)-2-(1-(5,6-dihydro-4H-pyrrolo[1,2-b]pyrazol-3-yl)piperidin-3-yl)-7-methoxy-[1,2,4]triazolo[1,5-c]quinazolin-5-amine] | 112 nM | 0.9 nM |  | 
COc1cccc2c1nc(N)n1nc([C@@H]3CCCN(c4cccc(C(F)(F)F)c4)C3)nc21 [Example 114, (R)-7-methoxy-2-(1-(3-(trifluoromethyl)phenyl)piperidin-3-yl)-[1,2,4]triazolo[1,5-c]quinazolin-5-amine] | 370 nM | 1.7 nM |  | 
COc1cccc2c1nc(N)n1nc([C@@H]3CCCN(c4cnn(C)c4C)C3)nc21 [Example 10, (R)-2-(1-(1,5-dimethyl-1H-pyrazol-4-yl)pipiperidin-3-yl)-7-methoxy-[1,2,4]triazolo[1,5-c]quinazolin-5-amine] | 252 nM | 1.5 nM |  | 
COc1cccc2c1nc(N)n1nc([C@@H]3CCCN(c4cnn(C5CCC5)c4)C3)nc21 [Example 18, (R)-2-(1-(1-cyclobutyl-1H-pyrazol-4-yl)piperidin-3-yl)-7-methoxy-[1,2,4]triazolo[1,5-c]quinazolin-5-amine] | 46.4 nM | 1 nM |  | 
COc1cccc2c1nc(N)n1nc([C@@H]3CCCN(c4ncc(C(F)(F)F)cn4)C3)nc21 [Example 109, (R)-7-methoxy-2-(1-(5-(trifluoromethyl)pyrimidin-2-yl)piperidin-3-yl)-[1,2,4]triazolo[1,5-c]quinazolin-5-amine] |  | 52.6 nM |  | 22% @ 10000 nM*

Second part, the molecule after the results:

IC50 [1] | IC50 [2] | *A2B cAMP % inh. @ 10000 nM ([1]; @ 10000 nM, marked *) | *A2B cAMP ^ % @ 10000 nM ([1]; @ 10000 nM, marked *, printed with ^ and without inh.) | SMILES
78.4 nM | 3.2 nM |  |  | COc1ccc2c(c1)nc(N)n1nc([C@@H]3CCCN(c4cnn(C(C)(C)[C@@H](C)O)c4)C3)nc21 [Example 225B]
1970 nM | 0.5 nM |  |  | COc1ccc2c(c1)nc(N)n1nc([C@H]3C[C@@H](C)CN(c4cn([C@@H](C)[C@H](C)O)nc4C)C3)nc21 [Example 219A, (2S,3S)-3-(4-((3S,5R)-3-(5-amino-8-methoxy-[1,2,4]triazolo[1,5-c]quinazolin-2-yl)-5-methylpiperidin-1-yl)-3-methyl-1H-pyrazol-1-yl)butan-2-ol]
721 nM | 20.7 nM |  |  | CC[C@H]1CC[C@@H](c2nc3c4ccc(OC)cc4nc(N)n3n2)CN1c1cnn(C(C)(C)CO)c1 [Example 215D]
1650 nM | 3.1 nM |  |  | COc1cccc2c1nc(N)n1nc(C3CCC(C)N(c4cnn(C5CC5)c4)C3)nc21 (single isomer, unassigned) [Example 141D]
604 nM | 0.9 nM |  |  | COc1cccc2c1nc(N)n1nc(C3CCC(C)N(c4cnn(CC(C)(C)O)c4)C3)nc21 (single isomer, unassigned) [Example 143B, 1-(4-((2S,5S or 2R,5R)-5-(5-amino-7-methoxy-[1,2,4]triazolo[1,5-c]quinazolin-2-yl)-2-methylpiperidin-1-yl)-1H-pyrazol-1-yl)-2-methylpropan-2-ol]
651 nM | 31.6 nM |  |  | COc1cccc2c1nc(N)n1nc(C3CCC(C)N(c4cnn(CC(C)(C)O)c4)C3)nc21 (single isomer, unassigned) [Example 143C]
 | 50.7 nM | 9% inh. @ 10000 nM* |  | COc1ccc2c(c1)nc(N)n1nc([C@H]3C[C@H](C(F)(F)F)CN(c4cnn(CC(C)(C)O)c4)C3)nc21 (single isomer, unassigned) [Example 218A, 1-(4-((3S,5S or 3R,5R)-3-(5-amino-8-methoxy-[1,2,4]triazolo[1,5-c]quinazolin-2-yl)-5-(trifluoromethyl)piperidin-1-yl)-1H-pyrazol-1-yl)-2-methylpropan-2-ol]
815 nM | 1.32 nM |  |  | COc1ccc2c(c1)nc(N)n1nc([C@@H]3C[C@H](C)CN(c4cnn(C(C)(C)CO)c4)C3)nc21 (single isomer, unassigned) [Example 222A]
66.2 nM | 1.03 nM |  |  | COc1ccc2c(c1)nc(N)n1nc([C@@H]3CCCN(c4cnn([C@@H](C)[C@H](C)O)c4)C3)nc21 [Example 220A, (2S,3S)-3-(4-((R)-3-(5-amino-8-methoxy-[1,2,4]triazolo[1,5-c]quinazolin-2-yl)piperidin-1-yl)-1H-pyrazol-1-yl)butan-2-ol]
